In test [1] the test system is PBMCs. The experiment in a line: Human PBMC proliferation assay (3H-thymidine incorporation). It counts as cell-based. To be noted: Experiment A; for mean cpm: 2 μg/ml.
Test [2] deals with mouse lung. The experiment in a line: Induction of immune-associated genes in the mouse lung after intranasal treatment (quantitative PCR). It counts as in vivo, BALB/c mice. To be noted: 20 ug intranasal, 6 hrs; vs P-7 treated mice. As to the method: The genes evaluated included genes encoding cytokines, chemokines, cell surface molecules, transcription factors, metalloproteases, and other molecules. The study was performed at Northview Pacific Laboratories (Hercules, Calif.) with 6-8 week old female BALB/c mice from Jackson Labs (Bar Harbor, Me.). […] Therefore, at 6 hrs the lungs were harvested and snap-frozen in liquid nitrogen and stored at −80° C. for later use. Total RNA was isolated using RNeasy mini kits (Qiagen Inc., Valencia, Calif.). The RNA samples were DNAse-treated (Roche Diagnostics, Mannheim, Germany) and converted into cDNA using Superscript II Rnase H-Reverse Transcriptase (Invitrogen, Rockville Md.) as described in Scheerens et al., 2001, Eur. J. of Immunology 31:1465-74. The cDNA samples were pooled per group and in each pooled sample the expression of mRNA of 75 genes was measured using real-time quantitative PCR (ABI Prism 5700, Perkin Elmer Applied Biosystems) and syber green (Qiagen Inc.). In addition to the genes of interest, in each sample the mRNA expression of a housekeeping gene was measured (HPRT or ubiquitin). In order to correct for the amount of RNA in each sample, all data were calculated relative to the expression of the housekeeping gene.

For test [3], the system named is CD19+ B cells. The experiment in a line: Human B cell proliferation assay (3H-thymidine incorporation). As to conditions: 2 μg/ml.
Protocol: Purified human B cells from 2 donors were stimulated with 5 μg/ml P-6 or CIC for 96 h. Proliferation was assessed by ^3H-thymidine incorporation.
A CIC is considered to induce “little” human B cell proliferation if B cell proliferation in the presence of the CIC is between greater than 15 to about 30% of P-6.
Human PBMCs were isolated from heparanized blood from two normal subjects. Some PBMCs were held in reserve while the remainder was incubated with CD19+ MACS beads (Miltenyi Biotec). These cells were then passed through a magnet, separating the CD19+ B cells through positive selection. […] B cells were then cultured at 1×10^5/200 μl/well in 96-well round-bottomed plates. In some cases, PBMCs were also cultured, but at 2×10^5/200 μl/well. Cells were stimulated in triplicate with 2 μg/ml polynucleotide or CIC. The culture period was 48 hours at 37° C. At the end of the culture period, the plates were pulsed with ^3H-thymidine, 1 μCi/well, and incubated for an additional 8 hours. Then the plates were harvested using standard liquid scintillation techniques and data was collected in counts per minutes (cpm).
The mark [4] stands for this setting: B cells, Donor 146, Experiment A.
The mark [5] stands for this setting: B cells, Donor 147, Experiment A.
[6] abbreviates: B cells, donor 194, Experiment B.

For “5′-TGACTGTGAACGTTCGAGATGA-3′ (SEQ ID NO: 2) [Compound P-6, reference compound]”, the cpm1 in test [1] (Donor 146, 2 μg/ml) is given as 22067 cpm; in test [1] (Donor 147, 2 μg/ml), 26436 cpm; in test [3] (setting [4]) it was 29280 cpm; in test [3] (setting [5]), 35729 cpm; in test [3] (setting [6]), 13678 cpm. The cpm2 in test [1] (Donor 146, 2 μg/ml) is given as 23740 cpm; in test [1] (Donor 147, 2 μg/ml), 23830 cpm; in test [3] (setting [4]), 33430 cpm; in test [3] (setting [5]) it was 18032 cpm; in test [3] (setting [6]), 12732 cpm. Also, the cpm3 in test [1] (Donor 146, 2 μg/ml) was 28099 cpm; in test [1] (Donor 147, 2 μg/ml), 17531 cpm; in test [3] (setting [4]) it was 30056 cpm; in test [3] (setting [5]), 21166 cpm; in test [3] (setting [6]), 9003 cpm. For the same substance, the mean cpm in test [1] (Donor 146 mean) came out at 24635 cpm; in test [1] (Donor 147 mean), 22599 cpm; in test [3] (B cells, Donor 146 mean, Experiment A) it was 30922 cpm; in test [3] (B cells, Donor 147 mean, Experiment A), 24976 cpm; in test [3] (B cells, donor 194 mean, Experiment B) it was 11804 cpm. The mean of both in test [1] (mean of Donors 146 and 147, 2 μg/ml) was determined as 23617 cpm; in test [3] (B cells, mean of Donors 146 and 147, Experiment A) it was 27949 cpm. Besides, in test [2], the “mRNA expression of immune-associated genes in the lung, in words” value is “potently induce the expression of a variety of genes”. Moreover, the “B cell proliferation, in words” value in test [3] (48 h plus 8 h 3H-thymidine pulse) is given as “cause B cells to proliferate”.
